Series [1] deals with MV4; 11 cell line. Briefly: Cell Titer-Glo viability, fixed agent + dose response agent combinations. It is filed as cell-based, human. Particulars: Homo sapiens. The method, then:
(§1) The additional therapeutic agents for this example were azacitidine (Cayman Chemical Cat No. 11164), decitabine (Sigma Cat No. A3656) and venetoclax (InvivoChem Cat. No. V0001).
(§2) Cell Culture: Three human acute myeloid leukemia tumor cell lines were used in this study: HL60, MV4;11 and MOLM-13. HL60 and MV4;11 were grown in IMDM base media with 20% and 10% FBS, respectively. MOLM-13 was grown in RPMI 1640 base media with 20% FBS. All culture media contained 2 mM glutamine, 100 units/mL sodium penicillin G, […] gentamicin, and 100 µg/mL streptomycin sulfate. The tumor cells were cultured in tissue culture flasks in a humidified incubator at 37° C., in an atmosphere of 5% CO2 and 95% air. Assay: Tumor cells were seeded in duplicate in a volume of 100 µL/well of media into 96-well micro-culture plates at initial densities low enough to allow for several population doublings (typically three to five) during the indicated incubation period. After a 24 hour incubation, test agents were added to each well. After 72 hours of culture with test articles, cell viability was determined using the Cell Titer-Glo® (Promega G7571) assay. Briefly, Cell Titer-Glo® (Promega G7571) reagents were equilibrated at room temperature for 30 minutes; 100 μL per well was added at endpoint (72 hours). Plates were gently shaken for two minutes and then incubated at room temperature for ten minutes prior to reading luminescence on the BMG Clariostar Plus microplate reader.
(§3) An IC50 ratio for each combination was calculated from the ratio of the combination IC50 as compared to the applicable no fixed agent (vehicle) control.

Series [2] has as its system HL-60 cell line. The series is described as above. Format: cell-based, human. Particulars: Homo sapiens. The method, then: as §1, §2, §3
The subject of series [3] is MOML-13 cell line. Described as above. It is filed as cell-based, human. Particulars: Homo sapiens. As to the method:
as §1, §2, §3

Series [4] deals with SK-OV-3 (Ovary). The experiment in a line: Cell Titer-Glo viability: single agent IC50 and Compound 1 + PARP inhibitor matrix (Bliss). Format: cell-based. Particulars: for # in matrix with Bliss >5: 6×6 matrix of PARP inhibitor with Compound 1; for IC50: single agent, read-out: Absolute IC50. As to the method:
(§4) The PARP inhibitors used for the study were talazoparib, olaparib and niraparib. […] was used as a reference control. […] For each drug agent on its own, IC50 values in each cell line were determined. Interactions of the combinations of Compound 1 and each PARP inhibitor was assessed as follows: […] Cisplatin and culture media were used as positive and negative control, respectively. The combination activities were assessed using CrownSyn software to determine synergy scores by Bliss Independence and Loewe additivity methods. […] Synergy scores calculated by both Bliss independence model and Loewe additivity model (see Greco, […]., Poch, G., Suhnel, J., Kundi, M., & Bodeker, W. (1992). Consensus on concepts and terminology for combined-action assessment: the […] agreement. […] Without being bound by theory, the Bliss independence model is often applied to asses synergy for non-interacting drugs that elicit their responses independently, e.g., by targeting separate pathways, whereas the Loewe additivity model may be more compatible where both drugs have similar modes of action on the same targets or pathways.

The subject of series [5] is IGR-OV1 (Ovary). The description is as above. It is filed as cell-based. Particulars: for # in matrix with Bliss >5: 6×6 matrix of PARP inhibitor with Compound 1; for IC50: single agent, read-out: Absolute IC50. The method, then: as §4
Series [6] deals with OVCAR-8 (Ovary). The series is described as above. Format: cell-based. Particulars: for # in matrix with Bliss >5: 6×6 matrix of PARP inhibitor with Compound 1; for IC50: single agent, read-out: Absolute IC50. The method, then: as §4
The subject of series [7] is HCC1937 (Breast). The description is as above. Format: cell-based. Particulars: for # in matrix with Bliss >5: 6×6 matrix of PARP inhibitor with Compound 1; for IC50: single agent, read-out: Absolute IC50. The method, then:
as §4

The test system of series [8] is Capan-1 (Pancreas). Described as above. It is filed as cell-based. Particulars: for # in matrix with Bliss >5: 6×6 matrix of PARP inhibitor with Compound 1; for IC50: single agent, read-out: Absolute IC50. As to the method:
as §4

Series [9] relates to MX-1 (Breast). Described as above. Format: cell-based. Particulars: for # in matrix with Bliss >5: 6×6 matrix of PARP inhibitor with Compound 1; for IC50: single agent, read-out: Absolute IC50. The method, then:
as §4

Series [10] deals with DoTc2 4510 (Uterus/Cervix). The series is described as above. Format: cell-based. Particulars: for # in matrix with Bliss >5: 6×6 matrix of PARP inhibitor with Compound 1; for IC50: single agent, read-out: Absolute IC50. The method, then:
as §4

Series [11] deals with HCC1395 (Breast). Described as above. Format: cell-based. Particulars: for # in matrix with Bliss >5: 6×6 matrix of PARP inhibitor with Compound 1; for IC50: single agent, read-out: Absolute IC50. As to the method: as §4
Series [12] relates to DU4475 (Breast). Described as above. It is filed as cell-based. Particulars: for # in matrix with Bliss >5: 6×6 matrix of PARP inhibitor with Compound 1; for IC50: single agent, read-out: Absolute IC50. As to the method:
as §4

Series [13] relates to HCC1806 (Breast). The description is as above. Format: cell-based. Particulars: for # in matrix with Bliss >5: 6×6 matrix of PARP inhibitor with Compound 1; for IC50: single agent, read-out: Absolute IC50. The method, then: as §4
Series [14] relates to MOML-13 (Human Acute Myeloid Leukemia cell line). Briefly: Combination Index (Chou-Talalay) of Compound 1 with second therapeutic agents. It is filed as cell-based. Particulars: for effect of the combination with Compound 1: MOML-13 (BRCA2 mutant, FLT3 heterozygous); for Combination Index: agent in combination with Compound 1, CI scores across all 3 ratios averaged, MOML-13. The method, then:
(§5) Each combination was tested in 3 cell lines: MOML-13 (Human Acute Myeloid Leukemia cell line; Addex Bio), MV-4-11 (Human B Myelomoncytic Leukemia cell line; ATCC), and OCI-AML-3 (Human Acute Myeloid Leukemia cell line).
(§6) Within this range, 20 dose levels were tested for each combination, with each response determined in duplicate. […] The actual drug concentrations in the ratios were determined from the IC50 values obtained for each individual drug.
(§7) Raw data was analyzed using Graph Pad Prism, four parameter logistic fits, and Chou-Talalay drug combination analyses. […] For data points with Fe<0, the fractional effect was set to 0.001. Data points with Fe>0.99 or <0.01 were omitted from the Chou-Talalay analysis because the Chou-Talalay analysis fits data to the Log of the fractional effect, with equal weight applied across the range of effect, such that the high and low end of the dose response, very small changes in effect within the range of experimental error erroneously skew the outcome of the model fit.
(§8) A Combination Index (CI) vs Fractional Effect plot showing the actual combination index plotted vs Fractional effect value was plotted for each combination dose. In this analysis, CI=1 represents additive activity, CI>1 represent less than additive activity (often referred to as antagonism) and CI<1=synergistic activity (better than additive).

The subject of series [15] is MV-4-11 (Human B Myelomoncytic Leukemia cell line). The description is as above. It is filed as cell-based. Particulars: for effect of the combination with Compound 1: MV-4-11 (FLT3 homozygous mutant); for Combination Index: agent in combination with Compound 1, CI scores across all 3 ratios averaged, MV-4-11. The method, then:
as §5, §6, §7, §8

In series [16] the test system is OCI-AML-3 (Human Acute Myeloid Leukemia cell line). The series is described as above. It is filed as cell-based. Particulars: for effect of the combination with Compound 1: OCI-AML-3 (FLT3 wildtype); for Combination Index: agent in combination with Compound 1, CI scores across all 3 ratios averaged, OCI-AML-3. The method, then: as §5, §6, §7, §8
The conditions of series [17]: CB-5083 tested previously in subjects; cited from earlier work.

Each structure is given as a SMILES string. Where two headings read alike, the source gives them in different places.

Take `Nc1ncn([C@H]2C[C@H](O)[C@@H](CO)O2)c(=O)n1` [Decitabine, decitabine, reference compound]: the IC50 in [1] (MV4-11) amounted to 0.0071 µM; in series [1] (MV4-11, 72 h) it was 0.39 µM; in [2] (HL-60), 4.03 µM; in series [2] (HL-60, 72 h), 5.29 µM; in series [3] it was 0.0065 µM; in [3] (72 h), 0.0108 µM.

For the compound `Cn1ncnc1[C@H]1c2n[nH]c(=O)c3cc(F)cc(c23)N[C@@H]1c1ccc(F)cc1` [Talazoparib], the “# in matrix with Bliss >5” value in series [4] is 13/36; in [5], 7/36; in series [6], 6/36; in [7], 8/36; in [8] it was 4/36; in [9] it was 0/36. The “# in matrix with Bliss >5” value in [10] is listed as 5/36; in series [11] it was 0/36; in [12], 15/36; in series [13], 3/36. The 50% inhibitory concentration (IC50) was over 5 µM in [4] (Homo sapiens); over 5 µM in series [6] (Homo sapiens, 72 h); over 5 µM in series [7] (Homo sapiens); 2.64 µM in series [8] (Homo sapiens, 72 h); over 5 µM in series [11] (Homo sapiens, 72 h); 0.03 µM in series [12] (Homo sapiens, DU-4475, 72 h). Moreover, the IC50 in [13] (Homo sapiens, 72 h) is over 5 µM. The “effect of the combination with Compound 1” value (shortened to “effect of the combination”) in [14] is listed as “strong synergy”.

As for `NC(=O)c1cccc2cn(-c3ccc([C@@H]4CCCNC4)cc3)nc12` [Niraparib, niraparib], the “# in matrix with Bliss >5” value is listed as 8/36 in series [4]; 7/36 in series [5]; 9/36 in series [6]; 15/36 in series [7]; 2/36 in series [8]; 4/36 in [9]. Further, the “# in matrix with Bliss >5” value in series [10] is 6/36; in [11], 6/36; in series [12] it was 10/36; in series [13] it was 9/36. Moreover, the IC50 was over 5 µM in series [5] (Homo sapiens, IGROV-1, 72 h); over 5 µM in [6] (Homo sapiens, 72 h); over 5 µM in [8] (Homo sapiens, 72 h); over 5 µM in series [11] (Homo sapiens, 72 h); 1.02 µM in series [12] (Homo sapiens, DU-4475, 72 h); over 5 µM in series [13] (Homo sapiens, 72 h).

Take `O=C(c1cc(Cc2n[nH]c(=O)c3ccccc23)ccc1F)N1CCN(C(=O)C2CC2)CC1` [Olaparib, olaparib]: the “# in matrix with Bliss >5” value in series [4] is listed as 10/36; in [5], 12/36; in series [6] it was 8/36; in series [7], 23/36; in series [8], 4/36; in [9], 3/36. Moreover, the “# in matrix with Bliss >5” value in series [10] is 5/36; in series [11] it was 8/36; in series [12] it was 13/36; in series [13], 17/36. In addition, the half-inhibitory concentration (IC50) in [5] (Homo sapiens, IGROV-1, 72 h) is over 5 µM; in series [6] (Homo sapiens, 72 h) it was over 5 µM; in series [8] (Homo sapiens, 72 h), over 5 µM; in series [9] it was over 5 µM; in series [10] (Homo sapiens), over 5 µM; in series [11] (Homo sapiens, 72 h), over 5 µM. In addition, the IC50 in series [12] (Homo sapiens, DU-4475, 72 h) was 4.52 µM; in series [13] (Homo sapiens, 72 h), over 5 µM.

On to `CC(C)C[C@H](NC(=O)CNC(=O)c1cc(Cl)ccc1Cl)B(O)O` [Ixazomib], for which the “effect of the combination” value in series [15], in [14] and in series [16] was “antagonistic” in each case. Further, the entries for the “Combination Index” value in series [15], in series [14] and in [16] were 1.546, 1.413 and 1.438, respectively.

In the case of `N.N.[Cl][Pt][Cl]` [Cisplatin], the IC50 in series [4] was 8.3 µM; in series [5] it was 1.45 µM; in [6], 9.22 µM; in series [7] it was 12.1 µM; in series [8], 1.68 µM; in series [9], 6.6 µM. Besides, the concentration for half-maximal inhibition (IC50) in series [10] came out at 10.2 µM; in series [11] it was 4.75 µM; in series [12], 1.6 µM; in [13], 3.24 µM.

For `Nc1ncn([C@@H]2O[C@H](CO)[C@@H](O)[C@H]2O)c(=O)n1` [Azacitidine, azacitidine, reference compound], the IC50 in [1] (MV4-11, MV4, 11, fixed agent Compound 1 - 185 nM, read-out: IC50) was found to be 0.11 µM; in series [2] (HL-60, HL-60, fixed agent Compound 1 - 210 nM, read-out: IC50), 1.96 µM; in series [3] (MOML-13, fixed agent Compound 1 - 75 nM, read-out: IC50), 0.125 µM.

Take `Nc1ccn([C@@H]2O[C@H](CO)[C@@H](O)[C@@H]2O)c(=O)n1` [cytarabine]: the “effect of the combination” value in [15], in series [14] and in [16] was “additive effects” in each case.

In the case of `COCC1(CO)C(=O)C2CCN1CC2` (stereo not shown) [APR-246], the “Combination Index” value in series [15] amounted to 1.285; in series [14] it was 1.228; in [16] it was 1.279.

For `Cc1cc2c(C(N)=O)cccc2n1-c1nc2c(c(NCc3ccccc3)n1)COCC2` [CB-5083, 1-[7,8-dihydro-4-[(phenylmethyl)amino]-5H-pyrano[4,3-d]pyrimidin-2-yl]-2-methyl-1H-indole-4-carboxamide], the visual adverse events result in series [17] is “symptoms of visual impairment or other visual adverse events”.

Take `CN(C)CCCOc1ccc(-c2ccc3ncc4c(c3c2)n(C2CCOCC2)c(=O)n4C)cn1` [AZDO156]: the “Combination Index” value in series [15] is given as 1.122; in [14], 1.293; in series [16], 1.159.

For the compound `CC1(C)CCC(CN2CCN(c3ccc(C(=O)NS(=O)(=O)c4ccc(NCC5CCOCC5)c([N+](=O)[O-])c4)c(Oc4cnc5[nH]ccc5c4)c3)CC2)=C(c2ccc(Cl)cc2)C1` [Venetoclax], the “Combination Index” value in series [14] was determined as 0.730.

The values are drawn from patent US20250049800A1, “VCP/p97 INHIBITOR FOR THE TREATMENT OF CANCER” (CASI Pharmaceuticals, Inc., priority 2021, published 2025).
